# Experimental data as given in US9796671B2, “Aurora kinase inhibitors” (REGENTS OF THE UNIVERSITY OF MINNESOTA, priority 2012, dated 2017).
# How the values were obtained:
# [1] = system: histone H3 phosphorylation on Ser10; assay: Histone H3 (Ser10) phosphorylation in lung cancer cells (Western blot); assay type: cell-based; conditions: dose- and time-dependent
# Excerpt: (§1) Proteins are resolved by SDS-PAGE and transferred onto polyvinylidene difluoride membranes (Millipore, Mass.), which are blocked with nonfat milk and hybridized with specific primary antibodies. The protein bands are visualized using an enhanced chemiluminescence reagent (GE Healthcare, Pittsburgh, Pa.) after hybridization with a horseradish peroxidase-conjugated secondary antibody.
# Phosphorylation of a highly conserved serine residue (Ser10) in histone H3 is thought to be crucial for entry into mitosis.
# [2] = system: A549 lung cancer cells xenograft; assay: Xenograft mouse model, oral gavage (Example 7); assay type: in vivo; conditions: 40 mg/kg oral gavage 5 times a week
# Excerpt: Athymic nude mice (6 week old nu/nu female mice, Harlan Laboratory, Minneapolis, Minn.) were inoculated in the right flank with A549 lung cancer cells (3*10^6 cells/mouse). Mice were maintained under “specific pathogen-free” conditions based on the guidelines established by the University of Minnesota Institutional Animal Care and Use Committee. Tumors were allowed to grow to an average of ˜53.5±34.5 mm^3 and then mice were divided into 2 equal groups with a similar average tumor volume (group 1; n=15), vehicle only; (group 2, […]), compound 1 at 40 mg/kg. Treatment with vehicle or compound 1 was initiated on Day 13 after inoculation of cells and continued to Day 80 (˜9 wks) and was administered by oral gavage 5 times a week. Tumor volume was measured once a week and body weight was measured once a week. Compound 1 was prepared in 2.5% DMSO/5% PEG 400/5% Tween-80 in 1×PBS and sonicated for ˜20 minutes. […] Data are shown as means±S.E (FIG. 1).
# [3] = system: H520 cells; assay: Cell cycle analysis (flow cytometry); assay type: cell-based, human; conditions: H520, 48 hours
# Description: (§2) Cells are plated in 60-mm plates and treated or not treated with Compound 1 for the indicated time. At each time point, cells are fixed in 70% ethanol and stored at −20° C. for 24 h. After staining, the cell cycle distribution or apoptosis is determined using a BD FACSCalibur Flow Cytometer (BD Biosciences, San Jose, Calif.). Aurora B inhibition leads to failure in cytokinesis and abnormal exit from mitosis, which could result in polyploidy cells, cell cycle arrest, and ultimately apoptosis. The ability to induce polyploidy cells was further examined in A549 cells treated or not treated with Compound 1. […] In addition, Compound 1 treatment for 48 hours caused an increase in the number of A549 and H520 cells occupying the G2/M phase. Moreover, exposure of these cells to Compound 1 for 72 hours induced apoptosis as measured by Annexin V/PI staining. For example, exposure to 5 μM Compound 1 induced 48% or 82% apoptosis in A549 cells and H520 cells, compared to 8% or 38% in untreated control cells, respectively.
# [4] = system: A549 cells; assay: Cell cycle analysis (flow cytometry); assay type: cell-based, human; conditions: A549, 48 hours
# Description: as §2
# [5] = system: phosphorylation of Akt (Ser473), GSK3β (Ser9), p70S6K (Thr389) and S6 (Ser235,236) in H520 cells; assay: Western blot of Akt and downstream signaling in cells; assay type: cell-based, human
# Excerpt: as §1
# (§3) According to the kinase profiler assay results, Akt2 also might be a potential target of Compound 1. An Akt1 and Akt2 in vitro kinase assays was performed.
# [6] = system: phosphorylation of Akt (Ser473), GSK3β (Ser9), p70S6K (Thr389) and S6 (Ser235,236) in A549 cells; assay: as above; assay type: cell-based, human
# Excerpt: as §1, §3
# [7] = system: A549 cells transfected with mock shRNA; assay: Anchorage-independent growth, mock shRNA cells; assay type: cell-based; conditions: Homo sapiens
# Description: Tumor cells are suspended in basal medium Eagle (BME) medium and added to 0.6% agar, with different concentrations of Compound 1 in a base layer and a top layer of 0.3% agar. The cultures are maintained at 37° C. in a 5% CO2 incubator for 1 to 2 weeks and then colonies are counted under a microscope using the Image-Pro Plus software (v.4) program (Media Cybernetics, Silver Spring, Md.).
# The effect of knocking down Aurora B expression in A549 cancer cells on the cell's sensitivity to Compound 1 was evaluated. […] Compound 1 (0.5 μM) inhibited anchorage-independent growth of A549 cells transfected with mock shRNA by about 90%.
structure (smiles),measurement,setting,value
O=C(/C=C/c1ccc2c(c1)OCO2)/C=C1/C(=O)Nc2ccccc21 [Compound 1],histone H3 phosphorylation on Ser10 in cancer cells,[1],suppressed
same,final tumor volume (mean±S.E.),"[2]; Day 13 to Day 80, vehicle 1004±140.1, in mm³ (unit assumed)",403.2±50.0
same,toxicity in mice,[2]; ~9 wks,No toxicity
same,number of cells occupying the G2/M phase,[3],increase
same,number of cells occupying the G2/M phase,[4],increase
same,effect on the phosphorylation of Akt or its downstream signaling molecules,[5],no effect
same,effect on the phosphorylation of Akt or its downstream signaling molecules,[6],no effect
same,inhibition at 0.5 µM,[7],~90%
